Reference: article PMC11019538, “Biophysics-Guided Lead Discovery of HBV Capsid Assembly Modifiers” (ACS Infectious Diseases, 2024)
Like-named read-outs stand apart in the source and are kept apart here.

Experiments:
[1] = MTT cytotoxicity, CEM cells; format: cell-based, human; details: human
Experimental: (§1) Human peripheral blood mononuclear (PBM), T lymphoblast CEM-CCRF (herein referred to as CEM cells), African green monkey kidney (Vero), or human liver carcinoma (HepG2) cells were tested via MTT assay using the CellTiter 96 Non-Radioactive Cell Proliferation (Promega) kit as previously described.[63]

[2] = MTT cytotoxicity, Vero cells; format: cell-based, African green monkey; details: African green monkey
Experimental: as §1

[3] = MTT cytotoxicity, PBM cells; format: cell-based, human; details: human
Experimental: as §1

[4] = MTT cytotoxicity, HepG2 cells; format: cell-based, human; details: human
Experimental: as §1

[5] = tested on: T lymphoblast CEM-CCRF (CEM) cells; assay: MTT cytotoxicity, CEM cells; format: cell-based, human
Experimental: as §1

[6] = tested on: human peripheral blood mononuclear (PBM) cells; assay: MTT cytotoxicity, PBM cells; format: cell-based
Experimental: as §1

[7] = tested on: HBV DNA replication in HepAD38 cells; assay: HBV DNA replication inhibition assay in HepAD38 cells (7 days, PCR of supernatant DNA); format: cell-based, hepatitis B virus; details: HepAD38 cells; for HBV DNA inhibition (%) at 10 µM: first round of selected compounds
Experimental: HepAD38 cells were seeded at 50,000 cells/well in collagen-coated 96-well plates. […] The experiment lasted 7 days. On day 7, total DNA was purified from the supernatant using a commercially available kit (DNeasy 96 Blood & Tissue kit, Qiagen). The HBV DNA was amplified in a polymerase chain reaction assay using LightCycler 480 II (Roche), as previously described.[63] All samples were tested in duplicate.

Cp149 = molecular target: T1, Cp149 (Hepatitis B virus genotype D subtype adw, UniProt P03147); assay: Tryptophan fluorescence titration; format: binding; details: for tryptophan fluorescence quenching: 20 μM Cp149, compound up to 100 μM
T1 construct: The N-terminal domain of Cp (Cp149) is sufficient for forming regular capsids; made in house; host or cells: E. coli BL21(DE3)
T1 sequence (P03147 1-149): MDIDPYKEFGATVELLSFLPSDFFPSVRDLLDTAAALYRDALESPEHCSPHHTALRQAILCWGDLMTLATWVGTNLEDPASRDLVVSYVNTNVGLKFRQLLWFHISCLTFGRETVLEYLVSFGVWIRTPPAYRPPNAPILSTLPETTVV
Experimental: Each of the compounds was titrated into 100 μL of the protein solution to final concentrations of 0, 5, 10, 20, 50, and 100 μM in a clear bottom 96-well plate. […] Tryptophan fluorescence levels were measured by exciting the samples at 285 nm and measuring the emission at 340 nm with the Varioskan Flash (Thermo Fisher) plate reader. […] Fluorescence quenching was calculated by taking the difference of net fluorescence levels of each concentration and of the 0 μM sample. All the samples were run in triplicate, and the results were averaged. The dissociation constants (KD) were fitted by the one-site-specific binding model of GraphPad.[45]

Cp149 capsid assembly = molecular target: T2, Cp149 capsid assembly (Hepatitis B virus genotype D subtype adw, UniProt P03147); assay: Transmission electron microscopy of assembled Cp149 products; format: biochemical; details: for % abnormal capsids, Trial 1 / % abnormal capsids, Trial 2: 500 mM NaCl
T2 construct: The N-terminal domain of Cp (Cp149) is sufficient for forming regular capsids; made in house; host or cells: E. coli BL21(DE3)
T2 sequence (P03147 1-149): as above
Experimental: The assembled samples of Cp149 were prepared as described in the Size Exclusion Chromatography section. Eight μL of each sample was added onto the 300 mesh Lacey Formvar carbon–copper grids (Ted Pella, Inc.) and allowed to sit for 1.5 min. The grid was then rinsed in 500 mL of deionized water for 10 s twice to rinse off the extra buffer on the grid. After drying, the sample was stained with 8 μL of 2% uranyl acetate for 1 min. After removal and drying of the uranyl acetate solution, the sample was imaged with a Hitachi HT7700 electron microscope at an accelerating voltage of 120 kV, at the IMat Materials Characterization Facility of Georgia Institute of Technology. The images underwent processing using ImageJ software. Initially, to minimize noise, a Gaussian blur filter was applied. These images were then converted into an 8 bit binary format for edge detection. ImageJ identified particles ranging in size from 800 to 2000 pixels. An example of a processed image can be seen in Figure S14. The circularity of each particle was calculated using the formula circularity = 4π × area × perimeter^–2. […] A total of four images, each containing a minimum of 100 capsids, were analyzed to determine the proportion of the abnormal capsids. The entire experiment was duplicated, and the outcomes from both sets were then averaged.

[8] = tested on: African green monkey kidney (Vero) cells; assay: MTT cytotoxicity, Vero cells; format: cell-based; details: Vero cells
Experimental: as §1

[9] = tested on: human liver carcinoma (HepG2) cells; assay: MTT cytotoxicity, HepG2 cells; format: cell-based; details: HepG2 cells
Experimental: as §1

[10] = T lymphoblast CEM-CCRF (CEM) cells
[11] = peripheral blood mononuclear (PBM) cells
[12] = Hepatitis B virus, 10 μM, trial 1, read-out: % HBV DNA Inh. at 10 μM, trial 1
[13] = Hepatitis B virus, 10 μM, trial 2, read-out: % HBV DNA Inh. at 10 μM, trial 2
[14] = Hepatitis B virus, 10 µM, trial 3, read-out: % HBV DNA Inh. at 10 µM, trial 3
[15] = Hepatitis B virus, 10 µM, trial 4, read-out: % HBV DNA Inh. at 10 µM, trial 4
[16] = Hepatitis B virus, 10 μM, read-out: % inhibition in at least one of the trials
[17] = Hepatitis B virus, trial 1, read-out: EC50, trial 1
[18] = Hepatitis B virus, trial 2, read-out: EC50, trial 2
[19] = Hepatitis B virus, trial 3, read-out: EC50, trial 3
[20] = Hepatitis B virus, trial 4, read-out: EC50, trial 4
[21] = trial 1, read-out: EC50, trial 1
[22] = trial 2, read-out: EC50, trial 2

Structure (SMILES)	CC50 [5]	CC50 [8]	CC50 [6]	HBV DNA inhibition (%) at 10 µM ([7]; 10 µM)	CC50 [9]	also measured
C[C@@H]1C[C@@H]([C@H](O)CC2CC(=O)NC(=O)C2)C(=O)[C@@H](C)C1 [Cycloheximide, reference compound]	–	–	–	–	–	CC50 [1]: 0.2 µM; CC50 ([2]; Vero cells): 0.2 µM; CC50 [3]: 0.9 µM; CC50 ([4]; HepG2 cells): 0.3 µM
CCOC(=O)c1cc(-c2cc(C(=O)OCC)c3ccccc3n2)nc2ccccc12 [GT-33]	–	–	–	–	–	CC50 [1, 10]: > 100 µM; % cytotoxicity at 100 µM (MTT), CEM cells [5]: 32%; CC50 ([2]; Vero cells (kidney)): 76 µM; percent cytotoxicity (cell growth inhibition) at 100 µM [6]: 5.6%; CC50 [3, 11]: > 100 µM; inhibition at 10 µM [7, 12]: 60%; inhibition at 10 µM [7, 13]: 37%; inhibition at 10 µM [7, 14]: < 1%; inhibition at 10 µM [7, 15]: < 1%; inhibition at 10 µM [7, 16]: > 50%; EC50 [7, 17]: < 10 µM; EC50 [7, 18]: > 10 µM; EC50 [7, 19]: > 10 µM; EC50 [7, 20]: > 100 µM; tryptophan fluorescence quenching (Cp149): reproducible but modest fluorescence quenching; effect on capsid morphology (TEM) (Cp149 capsid assembly; 20 μM Cp149, 40 μM compound): induced misdirected products; % abnormal capsids, Trial 1 (Cp149 capsid assembly; 20 μM Cp149, 40 μM compound): 31%; % abnormal capsids, Trial 2 (Cp149 capsid assembly; 20 μM Cp149, 40 μM compound): 26%; % abnormal capsids, Average (Cp149 capsid assembly; average of two trials): 29%; CC50 ([4]; HepG2 cells (liver carcinoma)): 86 µM
O=C(OCc1ccc(-c2cnc3ccccc3n2)cc1)c1cccs1 [GT-32]	–	–	–	–	–	CC50 [1, 10]: 52 µM; CC50 ([2]; Vero cells (kidney)): 44 µM; CC50 [3, 11]: 85 µM; inhibition at 10 µM [7, 12]: 48%; inhibition at 10 µM [7, 13]: < 1%; inhibition at 10 µM [7, 14]: < 1%; inhibition at 10 µM [7, 15]: < 1%; inhibition at 10 µM [7, 16]: > 50%; EC50 [7, 17]: ≥ 10 µM; EC50 [7, 18]: > 10 µM; EC50 [7, 19]: > 10 µM; EC50 [7, 20]: > 100 µM; tryptophan fluorescence quenching (Cp149): moderate fluorescence quenching; Kd (Cp149; 20 μM Cp149, single-site fit, read-out: dissociation constant (KD), estimated): 124 µM; Kd (Cp149; one site specific binding model, Table S7, read-out: KD): 124 µM; % abnormal capsids, Trial 1 (Cp149 capsid assembly; 20 μM Cp149, 40 μM compound): 76%; % abnormal capsids, Trial 2 (Cp149 capsid assembly; 20 μM Cp149, 40 μM compound): 85%; CC50 ([4]; HepG2 cells (liver carcinoma)): 59 µM
O=C(NCCc1ccccc1)c1cccnc1 [GT-13]	> 100 µM	> 100 µM	> 100 µM	< 1%	> 100 µM	–
O=C(CC1C=Cc2ccccc2N1C(=O)c1ccccc1)c1ccccc1 (stereo not shown) [GT-8]	> 100 µM	> 100 µM	> 100 µM	< 1%	> 100 µM	–
O=C(Cc1ccc(O)cc1)NCc1nc(-c2cccc(F)c2)c(-c2ccccn2)[nH]1 [GT-42]	1.4 µM	13 µM	3.5 µM	–	5.4 µM	% HBV DNA Inh. at 10 μM, trial 1 ([7]; 10 μM, trial 1): < 1%; % HBV DNA Inh. at 10 μM, trial 2 ([7]; 10 μM, trial 2): < 1%; EC50 [7, 21]: > 10 µM; EC50 [7, 22]: > 10 µM
O=C(CCc1ccccc1)Nc1cccnc1 [GT-15]	> 100 µM	> 100 µM	> 100 µM	< 1%	> 100 µM	–
Cc1c(CCN)ccc2c1[nH]c1ccccc12 [GT-6]	18.7 µM	42.6 µM	47.7 µM	27.2%	14.9 µM	–
CC(O)(c1ccccc1)C(c1ccccc1)C1CCCCN1 (stereo not shown) [GT-4]	> 100 µM	> 100 µM	> 100 µM	< 1%	> 100 µM	–
CC(CC(C#N)(c1ccccc1)c1ccccc1)N1CCCCC1 (stereo not shown) [GT-2]	16.1 µM	> 100 µM	85.3 µM	< 1%	26.4 µM	–
CCN(CC)CCCNc1cc(OC)c(Nc2ccccc2)c2cccnc12 [GT-49]	9.4 µM	16 µM	27 µM	–	17 µM	% HBV DNA Inh. at 10 μM, trial 1 ([7]; 10 μM, trial 1): 45%; % HBV DNA Inh. at 10 μM, trial 2 ([7]; 10 μM, trial 2): 45%; EC50 [7, 21]: > 10 µM; EC50 [7, 22]: > 10 µM
CCC(CO)Nc1nc2ccc(Cl)cc2c2ccccc12 (stereo not shown) [GT-10]	15.2 µM	14.4 µM	18.2 µM	< 1%	12.9 µM	–
NCc1cccc(-c2ccccn2)c1 [GT-24]	11.3 µM	> 100 µM	> 100 µM	< 1%	> 100 µM	–
NCc1cccc(Oc2ccccc2)c1 [GT-21]	18.2 µM	49.6 µM	> 100 µM	< 1%	> 100 µM	–
NCc1ccc(F)c(COC2CCCC2)c1 [GT-22]	36.3 µM	88.6 µM	> 100 µM	< 1%	> 100 µM	–
Cc1nc2ccccc2nc1-c1sc2ncccc2c1O [GT-37]	> 100 µM	19 µM	> 100 µM	–	24 µM	% cytotoxicity at 100 µM (MTT), CEM cells [5]: < 1%; percent cytotoxicity (cell growth inhibition) at 100 µM [6]: 48%; % HBV DNA Inh. at 10 μM, trial 1 ([7]; 10 μM, trial 1): 40%; % HBV DNA Inh. at 10 μM, trial 2 ([7]; 10 μM, trial 2): 40%; EC50 [7, 21]: > 10 µM; EC50 [7, 22]: > 10 µM
